Inconclusive results and toxic doses are left out. The calls were made as follows: active = survival T/C of 150% or more; inactive = T/C below 125% in these data. Peptide text beside a SMILES is read from it. * marks the point of attachment. Cbz = O=C(OCc1ccccc1)*
Tested on: P388 leukemia ip, CD2F1 mice, survival T/C
Test: NCI In Vivo Anticancer Drug Screen. Data for tumor model P388 Leukemia (intraperitoneal) in CD2F1 (CDF1) mice
Conditions: endpoint: median survival time, higher = longer survival
Procedure, shortened: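 Mice carrying the transplanted tumor received test compound or vehicle. Survival was recorded in each group, and the value is the treated-group measurement divided by that of the vehicle-treated control group.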

[1] = dose: 50.0 mg/kg/injection, schedule: Q01DX009 (ip), vehicle: saline with Tween-80
[2] = dose: 100.0 mg/kg/injection, schedule: Q01DX009 (ip), vehicle: saline with Tween-80
[3] = dose: 200.0 mg/kg/injection, schedule: Q01DX009 (ip), vehicle: saline with Tween-80
[4] = dose: 50.0 mg/kg/injection, schedule: Q01DX005 (ip), vehicle: Klucel (hydroxypropylcellulose) (HPC)
[5] = dose: 100.0 mg/kg/injection, schedule: Q01DX005 (ip), vehicle: Klucel (hydroxypropylcellulose) (HPC)
[6] = dose: 200.0 mg/kg/injection, schedule: Q01DX005 (ip), vehicle: Klucel (hydroxypropylcellulose) (HPC)
[7] = dose: 60.0 mg/kg/injection, schedule: Q01DX005 (ip), vehicle: saline with Tween-80
[8] = dose: 120.0 mg/kg/injection, schedule: Q01DX005 (ip), vehicle: saline with Tween-80
[9] = dose: 240.0 mg/kg/injection, schedule: Q01DX005 (ip), vehicle: saline with Tween-80
[10] = dose: 50.0 mg/kg/injection, schedule: Q01DX009 (ip), vehicle: Klucel (hydroxypropylcellulose) (HPC)
[11] = dose: 100.0 mg/kg/injection, schedule: Q01DX009 (ip), vehicle: Klucel (hydroxypropylcellulose) (HPC)
[12] = dose: 200.0 mg/kg/injection, schedule: Q01DX009 (ip), vehicle: Klucel (hydroxypropylcellulose) (HPC)
[13] = dose: 60.0 mg/kg/injection, schedule: Q01DX005 (ip), vehicle: saline
[14] = dose: 120.0 mg/kg/injection, schedule: Q01DX005 (ip), vehicle: saline
[15] = dose: 240.0 mg/kg/injection, schedule: Q01DX005 (ip), vehicle: saline

Measured: T/C

CCOC(=O)c1ccc(NC(CCSc2ccccc2)=NC(C)(C)C)cc1
inactive: [1] 103 % of control | [2] 107 % of control | [3] 94 % of control

CC(C(O)c1cc2c(c3ccccc13)CCCC2)N1CCOCC1 (stereo not drawn)
inactive: dose: 100.0 mg/kg/injection, schedule: Q01DX009 (ip), vehicle: suspension in saline 104 % of control | dose: 200.0 mg/kg/injection, schedule: Q01DX009 (ip), vehicle: suspension in saline 99 % of control | dose: 400.0 mg/kg/injection, schedule: Q01DX009 (ip), vehicle: suspension in saline 104 % of control

CCC(C)C(NC(=O)OCc1ccccc1)C(=O)NC(CCSC)C(=O)O (stereo not drawn) (Cbz-Ile-Met-OH; configuration not given here)
inactive: [4] 99 % of control | [5] 100 % of control | [6] 96 % of control

NS(=O)(=O)c1ccc(NCc2c3ccccc3nc3cc(Cl)ccc23)cc1
inactive: [7] 104 % of control | [8] 95 % of control | [9] 94 % of control

COc1ccc(C(=O)/C=C/c2cc3c(cc2OCc2ccccc2)OCO3)c(OCc2ccccc2)c1
inactive: dose: 75.0 mg/kg/injection, schedule: Q04DX003 (ip), vehicle: Klucel (hydroxypropylcellulose) (HPC) 99 % of control | dose: 150.0 mg/kg/injection, schedule: Q04DX003 (ip), vehicle: Klucel (hydroxypropylcellulose) (HPC) 94 % of control | dose: 300.0 mg/kg/injection, schedule: Q04DX003 (ip), vehicle: Klucel (hydroxypropylcellulose) (HPC) 90 % of control

C/C=C/C=C/C(O)CC(=O)N1OC2(C)c3ccccc3C1(C)c1ccccc12 (stereo not drawn)
inactive: dose: 100.0 mg/kg/injection, schedule: Q04DX003 (ip), vehicle: saline + alcohol 92 % of control | dose: 200.0 mg/kg/injection, schedule: Q04DX003 (ip), vehicle: saline + alcohol 92 % of control | dose: 400.0 mg/kg/injection, schedule: Q04DX003 (ip), vehicle: saline + alcohol 98 % of control

C=CCn1c(=O)n(CC)c(=O)c2[nH]c(C(F)(F)F)nc21
inactive: dose: 25.0 mg/kg/injection, schedule: Q01DX009 (ip), vehicle: Klucel (hydroxypropylcellulose) (HPC) 99 % of control | [10] 102 % of control | [11] 112 % of control

Cc1cc(C(C)(C)C)c(O)c(C(C)(C)C)c1
inactive: dose: 100.0 mg/kg/injection, schedule: Q01DX009 (ip), vehicle: distilled water + Tween-80 + alcohol 104 % of control | dose: 200.0 mg/kg/injection, schedule: Q01DX009 (ip), vehicle: distilled water + Tween-80 + alcohol 102 % of control | dose: 400.0 mg/kg/injection, schedule: Q01DX009 (ip), vehicle: distilled water + Tween-80 + alcohol 98 % of control

C=CCOc1ccccc1N/N=C(\Cl)C(=O)OCC
inactive: dose: 12.5 mg/kg/injection, schedule: Q01DX009 (ip), vehicle: saline with Tween-80 124 % of control | dose: 25.0 mg/kg/injection, schedule: Q01DX009 (ip), vehicle: saline with Tween-80 120 % of control | [1] 121 % of control

Oc1ccc(C2(c3ccc(O)cc3)CC3CC2C2CCCC32)cc1 (stereo not drawn)
inactive: [10] 98 % of control | [11] 97 % of control | [12] 97 % of control

CC1CCCCN1CCCNC(=O)Nc1ccc(Cc2ccc(NC(=O)NCCCN3CCCCC3C)cc2)cc1 (stereo not drawn)
inactive: dose: 0.79 mg/kg/injection, schedule: Q01DX009 (ip), vehicle: Klucel (hydroxypropylcellulose) (HPC) 95 % of control | dose: 1.56 mg/kg/injection, schedule: Q01DX009 (ip), vehicle: Klucel (hydroxypropylcellulose) (HPC) 97 % of control

Cc1nc2[nH][nH]c(=O)c2nc1C
inactive: [2] 100 % of control | dose: 100.0 mg/kg/injection, schedule: Q01DX009 (ip), vehicle: saline 108 % of control | [3] 96 % of control | dose: 200.0 mg/kg/injection, schedule: Q01DX009 (ip), vehicle: saline 102 % of control | dose: 400.0 mg/kg/injection, schedule: Q01DX009 (ip), vehicle: saline with Tween-80 94 % of control | dose: 400.0 mg/kg/injection, schedule: Q01DX009 (ip), vehicle: saline 102 % of control | dose: 600.0 mg/kg/injection, schedule: Q01DX009 (ip), vehicle: saline with Tween-80 94 % of control | dose: 600.0 mg/kg/injection, schedule: Q01DX009 (ip), vehicle: saline 98 % of control

CCNC(=O)C12CCC(C)(C(=O)O1)C2(C)C (stereo not drawn)
inactive: [13] 93 % of control | [14] 98 % of control | [15] 101 % of control

CCNc1nc(NC(C)C)nc(SC)n1
inactive: dose: 50.0 mg/kg/injection, schedule: Q04DX003 (ip), vehicle: saline with Tween-80 91 % of control | dose: 100.0 mg/kg/injection, schedule: Q04DX003 (ip), vehicle: saline with Tween-80 100 % of control | dose: 200.0 mg/kg/injection, schedule: Q04DX003 (ip), vehicle: saline with Tween-80 87 % of control

O=C(Nc1ccc(Br)c2c(NC(=O)c3ccccc3)ccc(Br)c12)c1ccccc1
inactive: dose: 1.5 mg/kg/injection, schedule: Q01DX009 (ip), vehicle: saline with Tween-80 100 % of control | dose: 3.0 mg/kg/injection, schedule: Q01DX009 (ip), vehicle: saline with Tween-80 90 % of control | dose: 6.0 mg/kg/injection, schedule: Q01DX009 (ip), vehicle: saline with Tween-80 90 % of control

COC(=O)C1C(O)CCC2CN3CCc4c([nH]c5cc(OC)ccc45)C3CC21 (stereo not drawn)
inactive: dose: 20.0 mg/kg/injection, schedule: Q01DX005 (ip), vehicle: DMSO 104 % of control | dose: 40.0 mg/kg/injection, schedule: Q01DX005 (ip), vehicle: DMSO 111 % of control | dose: 80.0 mg/kg/injection, schedule: Q01DX005 (ip), vehicle: DMSO 102 % of control | dose: 160.0 mg/kg/injection, schedule: Q01DX005 (ip), vehicle: DMSO 100 % of control

CCOc1c(N2CCOCC2)c(=O)c1=O
inactive: dose: 100.0 mg/kg/injection, schedule: Q01DX001 (ip), vehicle: saline with Tween-80 100 % of control | dose: 200.0 mg/kg/injection, schedule: Q01DX001 (ip), vehicle: saline with Tween-80 100 % of control | dose: 400.0 mg/kg/injection, schedule: Q01DX001 (ip), vehicle: saline with Tween-80 90 % of control

CCC(=O)N/C(N)=N\C(N)=S
inactive: [4] 101 % of control | [5] 96 % of control | [6] 104 % of control

Nc1n[n+](-c2ccc3ccccc3c2)no1
inactive: dose: 3.13 mg/kg/injection, schedule: Q01DX009 (ip), vehicle: water 98 % of control | dose: 6.25 mg/kg/injection, schedule: Q01DX009 (ip), vehicle: water 109 % of control | dose: 12.5 mg/kg/injection, schedule: Q01DX009 (ip), vehicle: water 120 % of control | dose: 25.0 mg/kg/injection, schedule: Q01DX009 (ip), vehicle: water 120 % of control

CC1C(c2ccccc2)NC(c2ccccc2)CC1(N)C#N (stereo not drawn)
inactive: [4] 95 % of control | [5] 95 % of control | [6] 93 % of control

N#Cc1nc(CC(=O)/C=C/c2ccccc2)c(CC(=O)/C=C/c2ccccc2)nc1C#N
inactive: [13] 103 % of control | [14] 103 % of control | [15] 112 % of control

COc1ccccc1N=Nc1c(-c2cccs2)nn(C(=S)SC)c1C(F)(F)F
inactive: [7] 92 % of control | [8] 97 % of control | [9] 97 % of control

O=C1OCC2C1Cc1cc(O)c(O)cc1C2c1ccc(O)c(O)c1 (stereo not drawn)
inactive: [11] 94 % of control | [12] 92 % of control | dose: 400.0 mg/kg/injection, schedule: Q01DX009 (ip), vehicle: Klucel (hydroxypropylcellulose) (HPC) 111 % of control

COc1ccc2c(c1)c(CC(N)=O)c(C)n2C(=O)c1ccc(Cl)nc1
inactive: dose: 52.75 mg/kg/injection, schedule: Q01DX005 (ip), vehicle: saline with Tween-80 94 % of control | dose: 105.5 mg/kg/injection, schedule: Q01DX005 (ip), vehicle: saline with Tween-80 92 % of control

CC1=C(C)C2C3C(=O)NC(=O)C3C1C1C3C(=O)NC(=O)C3C21 (stereo not drawn)
inactive: [13] 101 % of control | [14] 101 % of control | [15] 100 % of control

COc1ccc(S(=O)(=O)N/N=C\c2cc([N+](=O)[O-])ccc2O)c(OC)c1OC
inactive: dose: 50.0 mg/kg/injection, schedule: Q01DX005 (ip), vehicle: saline with Tween-80 107 % of control | dose: 100.0 mg/kg/injection, schedule: Q01DX005 (ip), vehicle: saline with Tween-80 101 % of control | dose: 200.0 mg/kg/injection, schedule: Q01DX005 (ip), vehicle: saline with Tween-80 94 % of control

From PubChem BioAssay AID330 (DTP/NCI, 2004)
